According to article PMC7587356, “High-Throughput Screening for Inhibitors of the SARS-CoV-2 Protease Using a FRET-Biosensor” (Molecules, 2020):
Counter-ions that a name gives are not always drawn. Like-named read-outs stand apart in the source and are kept apart here.

Target: SARS-CoV-2 3CLpro (Severe acute respiratory syndrome coronavirus 2, UniProt P0DTD1)
Assay: biochemical
Type: biochemical
Set-up: Replicate_1 / Replicate_2 / mean / mean (LOPAC_screen_w_protease): unit not given here
Details: for inhibition at 5 µM: 4 h
[1] = sheet LOPAC_screen_w_protease, primary screen with protease, compound at 5 µM, mean of two replicates
[2] = sheet LOPAC_screen_w_protease, primary screen with protease, compound at 5 µM, replicate 1
[3] = sheet LOPAC_screen_w_protease, primary screen with protease, compound at 5 µM, replicate 2
[4] = sheet LOPAC_screen_w_protease, primary screen with protease, 5 µM, mean of two replicates, read-out: mean
[5] = sheet LOPAC_screen_w_protease, primary screen with protease, 5 µM, replicate 1, read-out: Replicate_1
[6] = sheet LOPAC_screen_w_protease, primary screen with protease, 5 µM, replicate 2, read-out: Replicate_2
[7] = sheet LOPAC_screen_w_protease, primary screen of LOPAC1280 at 5 µM with protease, mean of the two replicates
[8] = sheet LOPAC_screen_w_protease, primary screen of LOPAC1280 at 5 µM with protease, replicate 1
[9] = sheet LOPAC_screen_w_protease, primary screen of LOPAC1280 at 5 µM with protease, replicate 2

O=C(O)CCCCCCCC(=O)O [Azelaic acid]
inhibition at 5 µM (sheet LOPAC_screen_w_protease, LOPAC1280 primary screen at 5 µM, with protease, mean of the two replicates, read-out: mean): 0.767% | inhibition at 5 µM (sheet LOPAC_screen_w_protease, LOPAC1280 primary screen at 5 µM, with protease, replicate 1, read-out: Replicate_1): 1.56% | inhibition at 5 µM (sheet LOPAC_screen_w_protease, LOPAC1280 primary screen at 5 µM, with protease, replicate 2, read-out: Replicate_2): -0.0221%

Cl.NCCC[C@](N)(C(=O)O)C(F)F (racemic)
mean [1]: 3.129 | Replicate_1 [2]: 3.2986 | Replicate_2 [3]: 2.959

N[C@@H](C(=O)N[C@@H]1C(=O)N2C(C(=O)O)=C(Cl)CS[C@H]12)c1ccccc1 [Cefaclor]
inhibition at 5 µM (read-out: Replicate_1 (LOPAC screen with protease)): 13.9% | inhibition at 5 µM (read-out: Replicate_2 (LOPAC screen with protease)): 11.6% | inhibition at 5 µM (read-out: mean (LOPAC screen with protease)): 12.7%

Nc1ccc(S(=O)(=O)Nc2ccnn2-c2ccccc2)cc1 [Sulfaphenazole]
inhibition at 5 µM [4]: 0.0259% | inhibition at 5 µM [5]: 0.159% | inhibition at 5 µM [6]: -0.107%

Cl.c1ccc(CN(CC2=NCCN2)c2ccccc2)cc1 [Antozoline hydrochloride]
mean [7]: 3.208 | Replicate_1 [8]: 3.9302 | Replicate_2 [9]: 2.486

OC[C@H]1O[C@@H](n2cnc3c(N[C@H]4CC5CCC4C5)ncnc32)[C@H](O)[C@@H]1O (stereo partly drawn) [(S)-ENBA]
mean [1]: 2.65 | Replicate_1 [2]: 4.26 | Replicate_2 [3]: 1.041

NC(=O)CN1CCCC1=O [Piracetam]
inhibition at 5 µM (sheet LOPAC_screen_w_protease, primary screen of LOPAC1280 at 5 µM with protease, mean of the two replicates, read-out: mean): 3.49% | inhibition at 5 µM (sheet LOPAC_screen_w_protease, primary screen of LOPAC1280 at 5 µM with protease, replicate 1, read-out: Replicate_1): 5.61% | inhibition at 5 µM (sheet LOPAC_screen_w_protease, primary screen of LOPAC1280 at 5 µM with protease, replicate 2, read-out: Replicate_2): 1.37%

CN1C2CCC1CC(OC(=O)c1c[nH]c3ccccc13)C2.Cl (stereo not drawn)
mean (sheet LOPAC_screen_w_protease, LOPAC1280 primary screen at 5 µM, with protease, mean of the two replicates): 0.5358 | Replicate_1 (sheet LOPAC_screen_w_protease, LOPAC1280 primary screen at 5 µM, with protease, replicate 1): 1.053 | Replicate_2 (sheet LOPAC_screen_w_protease, LOPAC1280 primary screen at 5 µM, with protease, replicate 2): 0.01899

S=C=Nc1ccc2oc(C3=NCCN3)cc2c1 [BU99006]
Replicate_1: 4.032 | Replicate_2: 1.831 | mean: 2.931

O=C(O)[C@H]1C[C@H](C(=O)O)N1 (relative stereo) [trans-Azetidine-2,4-dicarboxylic acid]
mean (LOPAC_screen_w_protease) (LOPAC1280 primary screen with protease, 5 µM compound, mean of the two replicates): 2.097 | Replicate_1 (LOPAC_screen_w_protease) (LOPAC1280 primary screen with protease, 5 µM compound, replicate 1): 1.338 | Replicate_2 (LOPAC_screen_w_protease) (LOPAC1280 primary screen with protease, 5 µM compound, replicate 2): 2.855

COc1ccccc1OCC(O)CN1CCN(CC(=O)Nc2c(C)cccc2C)CC1 (stereo not drawn) [Ranolazine dihydrochloride]
inhibition at 5 µM (sheet LOPAC_screen_w_protease, LOPAC1280 at 5 µM, mean of two replicates, read-out: mean): 0.975% | inhibition at 5 µM (sheet LOPAC_screen_w_protease, LOPAC1280 at 5 µM, replicate 1, read-out: Replicate_1): 1.18% | inhibition at 5 µM (sheet LOPAC_screen_w_protease, LOPAC1280 at 5 µM, replicate 2, read-out: Replicate_2): 0.768%

Cn1cc(C(=O)OCC2CCN(CCNS(C)(=O)=O)CC2)c2ccccc21 [GR 113808]
mean (sheet LOPAC_screen_w_protease, LOPAC1280 at 5 µM, mean of two replicates): 1.128 | Replicate_1 (sheet LOPAC_screen_w_protease, LOPAC1280 at 5 µM, replicate 1): 1.417 | Replicate_2 (sheet LOPAC_screen_w_protease, LOPAC1280 at 5 µM, replicate 2): 0.838

Cl.FC(F)(F)c1cc(CO[C@H]2CCCN[C@H]2c2ccccc2)cc(C(F)(F)F)c1 [L-733,060 hydrochloride]
mean [7]: 3.689 | Replicate_1 [8]: 3.241 | Replicate_2 [9]: 4.136

CC(=N)NCCC[C@H](N)C(=O)O.Cl
mean [1]: 2.835 | Replicate_1 [2]: 2.586 | Replicate_2 [3]: 3.084

C[C@]12CC[C@@H](O)C[C@@H]1CC[C@@H]1[C@@H]2CC[C@]2(C)C(=O)CC[C@@H]12 [Androsterone]
inhibition at 5 µM (read-out: Replicate_1): 1.73% | inhibition at 5 µM (read-out: Replicate_2): 3.02% | inhibition at 5 µM (read-out: mean): 2.38%

N=C(N)NC(=O)c1nc(Cl)c(N)nc1N [Amiloride hydrochloride]
inhibition at 5 µM [4]: 0.179% | inhibition at 5 µM [5]: -0.488% | inhibition at 5 µM [6]: 0.846%

CC[C@H](NC(=O)c1c(C)c(-c2ccccc2)nc2ccccc12)c1ccccc1 [SB 222200]
inhibition at 5 µM (LOPAC1280 primary screen with protease, 5 µM compound, replicate 1, read-out: Replicate_1 (LOPAC_screen_w_protease)): 1.71% | inhibition at 5 µM (LOPAC1280 primary screen with protease, 5 µM compound, replicate 2, read-out: Replicate_2 (LOPAC_screen_w_protease)): 1.28% | mean (LOPAC_screen_w_protease) (LOPAC1280 primary screen with protease, 5 µM compound, mean of two replicates): 1.495
